Measured values: patent publication US6521623B1, “N,N'-disubstituted benzimidazolone derivatives with affinity at the serotonin and dopamine receptors” (Boehringer Ingelheim Pharma KG, priority 2000, dated 2003)
Like-named read-outs stand apart in the source and are kept apart here.

Columns and labels:
[1] = biological target: T1, D4 human receptors (Homo sapiens, UniProt P21917); test: D4 Radioligand Receptor Binding Assay ([3H] YM-09151-2, CHO cell membranes); conditions: compound 10^−7 M, singlicate, [3H] YM-09151-2 0.15-0.25 nM
T1 construct: expressed in transfected cells; host or cells: CHO cells
T1 sequence (P21917 1-419): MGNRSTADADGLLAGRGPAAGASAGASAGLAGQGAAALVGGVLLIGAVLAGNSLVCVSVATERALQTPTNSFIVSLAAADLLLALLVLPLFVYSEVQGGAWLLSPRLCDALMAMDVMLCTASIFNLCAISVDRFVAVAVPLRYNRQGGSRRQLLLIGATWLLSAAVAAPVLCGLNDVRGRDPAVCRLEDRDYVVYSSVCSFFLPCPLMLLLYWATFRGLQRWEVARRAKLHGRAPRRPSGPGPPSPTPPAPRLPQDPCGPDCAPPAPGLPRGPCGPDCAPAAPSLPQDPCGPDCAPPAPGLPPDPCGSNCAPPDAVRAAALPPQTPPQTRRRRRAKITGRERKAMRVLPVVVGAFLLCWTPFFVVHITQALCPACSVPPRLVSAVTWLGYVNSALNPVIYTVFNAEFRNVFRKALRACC
Protocol: D4 Radioligand Receptor Binding Assay
Membranes from CHO cells expressing D4 human receptors, were suspended in incubation buffer.
Binding assays were performed in MultiProbe 204 pipetting system (Packard), according to a predetermined mapping, consistent with the software Screen. The compounds were tested in singlicate at one concentration (10^−7 M) in a total volume of 1000 μl (980 μl of diluted membranes, 10 μl DMSO or unlabelled ligand and 10 μl of [^3H] YM-09151-2 (0.15-0.25 nM). After incubation for 120 minutes at 27° C., the reaction was stopped by rapid filtration through Tomtec Cell Harvester (48 wells) using Filtermat B (presoaked in 0.1% PEI) filters. Filters were washed with ice-cold 50 mM Tris-HCl (pH 7.4) buffer (9×700 μl), dried, covered with MeltiLex B/HS (Wallac) scintillator sheets and heated in oven at 80° C. to 90° C. for about 10 minutes, transferred into plastic sample bags (Wallac), sealed, and put into 1024 Beta Plate scintillation counter (Wallac). Non-specific binding was determined in the presence of clozapine dissolved in DMSO to a final concentration of 10^−5 M.
The specific radioligand binding to the receptor was defined by the difference between total binding and non-specific binding, determined in the presence of an excess of unlabelled ligand. Results were expressed as percentage of control specific binding obtained in the presence of the compounds.

[2] = biological target: T2, 5-HT1A (Homo sapiens, UniProt P08908); test: 5HT1A Radioligand Receptor Binding Assay ([3H]-8-OH-DPAT, CHO cell membranes); set-up: expressed in transfected cells; host or cells: CHO cells
T2 sequence (P08908 1-422): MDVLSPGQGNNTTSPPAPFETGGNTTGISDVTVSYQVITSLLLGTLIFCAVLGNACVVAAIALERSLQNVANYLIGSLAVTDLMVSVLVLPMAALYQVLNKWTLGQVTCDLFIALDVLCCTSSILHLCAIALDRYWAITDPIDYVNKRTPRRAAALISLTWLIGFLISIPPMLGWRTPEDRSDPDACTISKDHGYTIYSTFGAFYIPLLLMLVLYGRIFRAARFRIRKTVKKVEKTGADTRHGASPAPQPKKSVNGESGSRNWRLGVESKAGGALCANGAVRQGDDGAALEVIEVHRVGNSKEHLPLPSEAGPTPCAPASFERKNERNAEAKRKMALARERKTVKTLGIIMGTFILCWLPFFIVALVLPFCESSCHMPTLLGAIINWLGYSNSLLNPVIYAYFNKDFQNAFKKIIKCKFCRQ
Protocol: 5HT1A Radioligand Receptor Binding Assay
Membranes from CHO cells, expressing 5-HT1A human receptors were suspended in incubation buffer.
Binding assays were performed in MultiProbe 204 pipetting system (Packard), according to a predetermined mapping, consistent with the software Screen. The compounds were tested in singlicate at one concentration (10^−7 M) in a total volume of 1000 μl. 980 μl of diluted membranes, 10 μl DMSO or unlabelled ligand and 10 μl of [^3H]-8-OH-DPAT (0.6-0.7 nM) were incubated for 60 minutes at 27° C. The reaction was stopped by rapid filtration through Tomtec Cell Harvester (48 wells) using Filtermat B (presoaked in 0.1% PEI) filters. Filters were washed with ice-cold 50 mM Tris-HCl (pH 7.4) buffer (9×700 μl), dried, covered with MeltiLex B/HS scintillator sheets (Wallac) and heated at 80° C. to 90° C. for about 10 minutes, transferred into plastic sample bags (Wallac), sealed, and put into 1024 Beta Plate scintillation counter (Wallac). Non-specific binding was determined in the presence of 5-HT (10^−5 M).
The specific radioligand binding to the receptor was defined by the difference between total binding and non-specific binding, determined in the presence of an excess of unlabelled ligand. Results were expressed as percentage of control specific binding obtained in the presence of the compounds. The affinity values (IC50) for the compounds were obtained by a nonlinear least squares regression analysis on the basis of a one binding site model.

[3] = compound 10^−7 M, singlicate, [3H]-8-OH-DPAT 0.6-0.7 nM, CHO membranes, human 5-HT1A
[4] = [3H]-8-OH-DPAT, CHO membranes, human 5-HT1A, read-out: 5-HT1A Receptor Binding IC50

| SMILES | D4 Receptor Binding Assay % inhibition (10^−7 M) [1] | 5-HT1A Receptor Binding Assay % inhibition (10^−7 M) [2, 3] | IC50 [2, 4] | other results |
| --- | --- | --- | --- | --- |
| O=c1n(C/C=C\CN2CCN(c3ccc(Cl)c(Cl)c3)CC2)c2ccccc2n1CCO [Compound 371] | 95% | 59% | – | – |
| O=c1n(CCCCN2CCc3c([nH]c4ccccc34)C2)c2ccccc2n1CCN1CCCCC1 [Compound 26] | 94% | 70% | – | – |
| COc1ccccc1N1CCN(CCn2c(=O)n(CCN3CCCCC3)c3ccccc32)CC1 [Compound 159] | 50% | 85% | – | – |
| O=c1n(CCCCN2CCN(c3cccc(Cl)c3)CC2)c2ccccc2n1CCN1CCOCC1 [Compound 43] | 55% | 104% | – | – |
| CS(=O)(=O)NCCn1c(=O)n(C/C=C/CN2CCN(c3ccccn3)CC2)c2ccccc21 [Compound 520] | – | – | 8.1 nM | – |
| O=c1n(C/C=C/CN2CCN(c3ccccc3)CC2)c2ccccc2n1CCO [Compound 378] | 35% | 77% | – | – |
| COc1ccccc1N1CCN(CCCCn2c(=O)n(CCN3CCCCC3)c3ccccc32)CC1 [Compound 38] | 78% | 92% | – | – |
| CCNC(=O)OCCn1c(=O)n(C/C=C/CN2CCN(c3ccccn3)CC2)c2ccccc21 [Compound 415] | – | – | 14 nM | – |
| O=c1n(C/C=C/CN2CCN(c3ccccn3)CC2)c2ccccc2n1CCN1CCOCC1 [Compound 347] | – | – | 13 nM | – |
| COCCn1c(=O)n(C/C=C/CN2CCN(c3cccc(Cl)c3)CC2)c2ccccc21 [Compound 297] | – | – | 7.9 nM | inhibition at 0.1 µM [1]: 34%; inhibition at 0.1 µM [2, 3]: 96% |
| CC(=O)NCCn1c(=O)n(C/C=C\CN2CCN(c3cccc(C)c3C)CC2)c2ccccc21 [Compound 468] | – | – | 3.1 nM | – |
| CC(=O)NCCn1c(=O)n(C/C=C\CN2CCN(c3cccc(C(F)(F)F)c3)CC2)c2ccccc21 [Compound 459] | – | – | 8.8 nM | – |
| CC(=O)NCCn1c(=O)n(CCN2CCN(c3cccc(C)c3C)CC2)c2ccccc21 [Compound 446] | – | – | 7.3 nM | – |
| CCNC(=O)OCCn1c(=O)n(C/C=C/CN2CCN(c3ccccc3)CC2)c2ccccc21 [Compound 412] | 39% | 93% | – | – |
| O=c1n(C/C=C\CN2CCN(c3ccccc3)CC2)c2ccccc2n1CCN1CCCCC1 [Compound 310] | – | – | 15 nM | – |
| O=c1n(C/C=C/CN2CCN(c3ncccn3)CC2)c2ccccc2n1CCN1CCCCC1 [Compound 332] | 85% | 78% | – | – |
| CCNC(=O)OCCn1c(=O)n(C/C=C\CN2CCN(c3ccccc3)CC2)c2ccccc21 [Compound 395] | 32% | 86% | – | – |
| CCNC(=O)OCCn1c(=O)n(CCN2CCN(c3ccccc3OC)CC2)c2ccccc21 [Compound 216] | 44% | 92% | – | – |
| COCCn1c(=O)n(CCCCN2CC=C(c3ccccc3)CC2)c2ccccc21 [Compound 10] | 47% | 60% | – | – |

| SMILES | D4 Receptor Binding Assay % inhibition (10^−7 M) [1] | 5-HT1A Receptor Binding Assay % inhibition (10^−7 M) [2, 3] | IC50 [2, 4] | other results |
| --- | --- | --- | --- | --- |
| CS(=O)(=O)NCCn1c(=O)n(C/C=C\CN2CCc3c([nH]c4ccccc34)C2)c2ccccc21 [Compound 501] | 63% | 70% | – | – |
| Cc1cccc(N2CCN(C/C=C/Cn3c(=O)n(CCNS(C)(=O)=O)c4ccccc43)CC2)c1 [Compound 536] | – | – | 9.5 nM | – |
| O=c1n(C/C=C\CN2CC=C(c3ccccc3)CC2)c2ccccc2n1CCN1CCCCC1 [Compound 319] | 70% | 94% | – | – |
| O=c1n(C/C=C\CN2CCN(c3cccc(C(F)(F)F)c3)CC2)c2ccccc2n1CCO [Compound 369] | – | – | 3.5 nM | – |
| O=c1n(CCCCN2CCN(c3ccccn3)CC2)c2ccccc2n1CCN1CCCCC1 [Compound 23] | 48% | 73% | – | – |
| COc1ccccc1N1CCN(CCCCn2c(=O)n(CCO)c3ccccc32)CC1 [Compound 74] | 62% | 92% | – | – |
| O=c1n(C/C=C/CN2CCc3c([nH]c4ccccc34)C2)c2ccccc2n1CCN1CCCCC1 [Compound 333] | – | – | 16 nM | – |
| O=c1n(C/C=C/CN2CCN(c3cccc(C(F)(F)F)c3)CC2)c2ccccc2n1CCN1CCOCC1 [Compound 352] | – | – | 4.1 nM | – |
| O=c1n(C/C=C/CN2CCN(c3ccccn3)CC2)c2ccccc2n1CCN1CCCCC1 [Compound 330] | – | – | 7.9 nM | – |
| CCNC(=O)OCCn1c(=O)n(C/C=C/CN2CCN(c3cccc(Cl)c3)CC2)c2ccccc21 [Compound 416] | – | – | 7.9 nM | – |
| O=c1n(C/C=C/CN2CCN(c3cccc(C(F)(F)F)c3)CC2)c2ccccc2n1CCN1CCCCC1 [Compound 335] | – | – | 3.5 nM | – |
| COCCn1c(=O)n(C/C=C/CN2CCN(c3ccccn3)CC2)c2ccccc21 [Compound 296] | – | – | 8.2 nM | – |
| Cc1cccc(N2CCN(C/C=C\Cn3c(=O)n(CCNS(C)(=O)=O)c4ccccc43)CC2)c1C [Compound 512] | – | – | 0.59 nM | – |
| CC(=O)NCCn1c(=O)n(C/C=C\CN2CCN(c3ccccc3Cl)CC2)c2ccccc21 [Compound 472] | – | – | 3.1 nM | – |
| CS(=O)(=O)NCCn1c(=O)n(C/C=C\CN2CC=C(c3ccccc3)CC2)c2ccccc21 [Compound 504] | – | – | – | IC50 [2]: 3.6 nM |
| O=c1n(C/C=C\CN2CCN(c3cccc(C(F)(F)F)c3)CC2)c2ccccc2n1CCN1CCCCC1 [Compound 318] | – | – | 3.1 nM | – |
| O=c1n(C/C=C\CN2CC=C(c3ccccc3)CC2)c2ccccc2n1CCO [Compound 370] | – | – | – | IC50 [2]: 4.4 nM |
| CS(=O)(=O)NCCn1c(=O)n(C/C=C\CN2CCN(c3cccc(C(F)(F)F)c3)CC2)c2ccccc21 [Compound 503] | – | – | 2.8 nM | – |
| O=c1n(C/C=C/CN2CCN(c3ccccn3)CC2)c2ccccc2n1CCO [Compound 381] | – | – | 44 nM | – |
